Laboratory results as given in the NIST ThermoML archive (doi:10.1016/j.jct.2012.04.026).

Tests used:
[1] = Liquid, Vibrating tube method
[2] = refractive index (Na D-line) (dimensionless); details: Liquid, Standard Abbe refractometry
[3] = wn = mass fraction of the nth substance listed; details: 313.15 K, Liquid, Vibrating tube method
[4] = refractive index (Na D-line) (dimensionless); wn = mass fraction of the nth substance listed; details: 313.15 K, Liquid, Standard Abbe refractometry

CCCC[n+]1ccn(C)c1.O=S(=O)([N-]S(=O)(=O)C(F)(F)F)C(F)(F)F
Details | mass density, [1] [kg/m3] | refractive index, [2]
298.15 K, 101.33 kPa | 1436.1 | 1.42672
313.15 K, 101 kPa | 1420.7 | 1.42437
313.15 K, 101.3 kPa | 1420.7 | –
313.15 K, 101.33 kPa | – | 1.42437

CCCCCC[n+]1ccn(C)c1.O=S(=O)([N-]S(=O)(=O)C(F)(F)F)C(F)(F)F + CCO
Details | mass density, 101 kPa [kg/m3] | mass density, 101.3 kPa [kg/m3] | refractive index, 101 kPa | refractive index, 101.3 kPa | refractive index, 10234 kPa
[3], w2 = 0.099 | 1270.96 | 1270.96 | – | – | –
[3], w2 = 0.231 | 1161.07 | 1161.07 | – | – | –
[3], w2 = 0.328 | 1092.32 | 1092.32 | – | – | –
[3], w2 = 0.529 | 973.37 | 973.37 | – | – | –
[3], w2 = 0.646 | 914.93 | 914.93 | – | – | –
[3], w2 = 0.74 | 872.96 | 872.96 | – | – | –
[3], w2 = 0.901 | 808.24 | 808.24 | – | – | –
[4], w2 = 0.099 | – | – | 1.41392 | 1.41392 | 1.41392
[4], w2 = 0.231 | – | – | 1.40128 | 1.40128 | 1.40128
[4], w2 = 0.328 | – | – | 1.39325 | 1.39325 | 1.39325
[4], w2 = 0.529 | – | – | 1.37912 | 1.37912 | 1.37912
[4], w2 = 0.646 | – | – | 1.37165 | 1.37165 | 1.37165
[4], w2 = 0.74 | – | – | 1.36626 | 1.36626 | 1.36626
[4], w2 = 0.901 | – | – | 1.35782 | 1.35782 | 1.35782

CCn1cc[n+](C)c1.O=S(=O)([N-]S(=O)(=O)C(F)(F)F)C(F)(F)F + CCO
Details | mass density, 101 kPa [kg/m3] | mass density, 101.3 kPa [kg/m3] | refractive index, 101 kPa | refractive index, 101.3 kPa | refractive index, 10234 kPa
[3], w2 = 0.014 | 1481.64 | 1481.64 | – | – | –
[3], w2 = 0.034 | 1456.07 | 1456.07 | – | – | –
[3], w2 = 0.072 | 1409.69 | 1409.69 | – | – | –
[3], w2 = 0.126 | 1347.49 | 1347.49 | – | – | –
[3], w2 = 0.278 | 1195.34 | 1195.34 | – | – | –
[3], w2 = 0.324 | 1155.44 | 1155.44 | – | – | –
[3], w2 = 0.635 | 943.07 | 943.07 | – | – | –
[4], w2 = 0.014 | – | – | 1.41547 | 1.41547 | 1.41547
[4], w2 = 0.034 | – | – | 1.41333 | 1.41333 | 1.41333
[4], w2 = 0.072 | – | – | 1.40945 | 1.40945 | 1.40945
[4], w2 = 0.126 | – | – | 1.40425 | 1.40425 | 1.40425
[4], w2 = 0.278 | – | – | 1.3915 | 1.3915 | 1.3915
[4], w2 = 0.324 | – | – | 1.38812 | 1.38812 | 1.38812
[4], w2 = 0.635 | – | – | 1.36939 | 1.36939 | 1.36939

CCCCCC[n+]1ccn(C)c1.O=S(=O)([N-]S(=O)(=O)C(F)(F)F)C(F)(F)F
Details | mass density, [1] [kg/m3] | refractive index, [2]
298.15 K, 101.33 kPa | 1371.99 | 1.43016
313.15 K, 101 kPa | 1356.95 | 1.42542
313.15 K, 101.3 kPa | 1356.95 | –
313.15 K, 101.33 kPa | – | 1.42542

CCn1cc[n+](C)c1.O=S(=O)([N-]S(=O)(=O)C(F)(F)F)C(F)(F)F
Details | mass density, [1] [kg/m3] | refractive index, [2]
298.15 K, 101.33 kPa | 1518.74 | 1.42307
313.15 K, 101 kPa | 1502.2 | 1.41695
313.15 K, 101.3 kPa | 1502.2 | –
313.15 K, 101.33 kPa | – | 1.41695

CCO [ethanol]
Details | mass density, [1] [kg/m3] | refractive index, [2]
298.15 K, 101.33 kPa | 785.2 | –
313.15 K, 101 kPa | 773.03 | 1.35353
313.15 K, 101.3 kPa | 773.03 | –
313.15 K, 101.33 kPa | – | 1.35353

CCCn1cc[n+](C)c1.O=S(=O)([N-]S(=O)(=O)C(F)(F)F)C(F)(F)F + CCO
Details | mass density, 101 kPa [kg/m3] | mass density, 101.3 kPa [kg/m3] | refractive index, 101 kPa | refractive index, 101.3 kPa | refractive index, 10234 kPa
[3], w2 = 0.019 | 1433.96 | 1433.96 | – | – | –
[3], w2 = 0.035 | 1414.83 | 1414.83 | – | – | –
[3], w2 = 0.082 | 1362.5 | 1362.5 | – | – | –
[3], w2 = 0.133 | 1309.15 | 1309.15 | – | – | –
[3], w2 = 0.186 | 1256.95 | 1256.95 | – | – | –
[3], w2 = 0.267 | 1183.97 | 1183.97 | – | – | –
[3], w2 = 0.55 | 983.52 | 983.52 | – | – | –
[4], w2 = 0.019 | – | – | 1.41801 | 1.41801 | 1.41801
[4], w2 = 0.035 | – | – | 1.4161 | 1.4161 | 1.4161
[4], w2 = 0.082 | – | – | 1.41105 | 1.41105 | 1.41105
[4], w2 = 0.133 | – | – | 1.40604 | 1.40604 | 1.40604
[4], w2 = 0.186 | – | – | 1.40101 | 1.40101 | 1.40101
[4], w2 = 0.267 | – | – | 1.39403 | 1.39403 | 1.39403
[4], w2 = 0.55 | – | – | 1.37499 | 1.37499 | 1.37499

CCCC[n+]1ccn(C)c1.O=S(=O)([N-]S(=O)(=O)C(F)(F)F)C(F)(F)F + CCO
Details | mass density, 101 kPa [kg/m3] | mass density, 101.3 kPa [kg/m3] | refractive index, 101 kPa | refractive index, 101.3 kPa | refractive index, 10234 kPa
[3], w2 = 0.008 | 1411.58 | 1411.58 | – | – | –
[3], w2 = 0.015 | 1403.51 | 1403.51 | – | – | –
[3], w2 = 0.032 | 1384.48 | 1384.48 | – | – | –
[3], w2 = 0.084 | 1329.16 | 1329.16 | – | – | –
[3], w2 = 0.156 | 1259.12 | 1259.12 | – | – | –
[3], w2 = 0.202 | 1218.21 | 1218.21 | – | – | –
[3], w2 = 0.385 | 1077.75 | 1077.75 | – | – | –
[3], w2 = 0.48 | 1016.97 | 1016.97 | – | – | –
[4], w2 = 0.008 | – | – | 1.42305 | 1.42305 | 1.42305
[4], w2 = 0.015 | – | – | 1.42222 | 1.42222 | 1.42222
[4], w2 = 0.032 | – | – | 1.41981 | 1.41981 | 1.41981
[4], w2 = 0.084 | – | – | 1.41301 | 1.41301 | 1.41301
[4], w2 = 0.156 | – | – | 1.40517 | 1.40517 | 1.40517
[4], w2 = 0.202 | – | – | 1.40056 | 1.40056 | 1.40056
[4], w2 = 0.385 | – | – | 1.38611 | 1.38611 | 1.38611
[4], w2 = 0.48 | – | – | 1.37983 | 1.37983 | 1.37983

CCCn1cc[n+](C)c1.O=S(=O)([N-]S(=O)(=O)C(F)(F)F)C(F)(F)F
Details | mass density, [1] [kg/m3] | refractive index, [2]
298.15 K, 101.33 kPa | 1473.97 | 1.42525
313.15 K, 101 kPa | 1458.33 | 1.42016
313.15 K, 101.3 kPa | 1458.33 | –
313.15 K, 101.33 kPa | – | 1.42016

CCCCCCC [heptane]
298.15 K, 101.33 kPa
Details | mass density [kg/m3] | refractive index
[1] | 679.57 | –
[2] | – | 1.38529
